Measured values reported in PMC3407927, “Cyclisation Increases the Stability of the Sea Anemone Peptide APETx2 but Decreases Its Activity at Acid-Sensing Ion Channel 3” (Marine Drugs, 2012).
Where a SMILES comes first, the peptide text is derived from it. Bridges are numbered along the chain shown (N, C = ends). Where no end group is shown, it is not given here.

What was measured:
trypsin = assay: Trypsin stability assay; type: in vitro ADME; conditions: 5 mM EDTA, pH 8.0, 20 μM peptide, 37 °C, RP-HPLC; for half-life at 20 μM / Trypsin stability assay: half-life: 1 μg trypsin in 500 μL 20 mM Tris, samples 0-48 h, each time point in triplicate
Protocol: The following protocol was modified from a previous published method: Wild-type APETx2 and cyclic analogues were diluted into 500 μL trypsin buffer (20 mM Tris, 5 mM EDTA, pH 8.0) to a final concentration of 20 μM. Reactions were started by adding 1 μg trypsin to each sample. A 35-μL sample was used for each time point and quenched by mixing with 35 μL 0.2% TFA. Protease digestion was monitored using analytical RP-HPLC. Reactions were incubated at 37 °C and samples were taken at 0, 0.5, 1, 2, 4, 12, 24 and 48 h. All time points were investigated in triplicate.

pepsin [1] = tested on: T1, pepsin; assay: Simulated gastric fluid (SGF) stability assay; type: in vitro ADME; conditions: simulated gastric fluid (SGF) with pepsin; SGF: 6.2 mg/mL pepsin, 30 mM NaCl, pH 1.9; 20 μM peptide; 37 °C; samples 0-480 min; RP-HPLC; each time point in triplicate
T1 construct: purchased Sigma Aldrich
Protocol: (§1) The following protocol was modified from a published method: Wild-type APETx2 and cyclic analogues were separately diluted into 350 μL SGF (6.2 mg/mL pepsin, 30 mM NaCl, pH 1.9) to a final peptide concentration of 20 μM. Reactions were started with the addition of the peptides and the mixtures were incubated at 37 °C. 35-μL samples were taken at 0, 15, 30, 45, 60, 120, 240 and 480 min and mixed with 5 μL pepstatin A to quench the reaction (3.3 mg/mL dissolved in ethanol). Progress was monitored using RP-HPLC and each time point was investigated in triplicate.

rat ASIC3 = molecular target: T2, rat ASIC3 (Rattus norvegicus, UniProt O35240); assay: Two-electrode voltage-clamp electrophysiology on Xenopus laevis oocytes expressing homomeric rat ASIC3; type: cell-based; conditions: n = 6
T2 construct: expressed in transfected cells; host or cells: Xenopus laevis oocytes (cRNA injection)
T2 sequence (O35240 1-533): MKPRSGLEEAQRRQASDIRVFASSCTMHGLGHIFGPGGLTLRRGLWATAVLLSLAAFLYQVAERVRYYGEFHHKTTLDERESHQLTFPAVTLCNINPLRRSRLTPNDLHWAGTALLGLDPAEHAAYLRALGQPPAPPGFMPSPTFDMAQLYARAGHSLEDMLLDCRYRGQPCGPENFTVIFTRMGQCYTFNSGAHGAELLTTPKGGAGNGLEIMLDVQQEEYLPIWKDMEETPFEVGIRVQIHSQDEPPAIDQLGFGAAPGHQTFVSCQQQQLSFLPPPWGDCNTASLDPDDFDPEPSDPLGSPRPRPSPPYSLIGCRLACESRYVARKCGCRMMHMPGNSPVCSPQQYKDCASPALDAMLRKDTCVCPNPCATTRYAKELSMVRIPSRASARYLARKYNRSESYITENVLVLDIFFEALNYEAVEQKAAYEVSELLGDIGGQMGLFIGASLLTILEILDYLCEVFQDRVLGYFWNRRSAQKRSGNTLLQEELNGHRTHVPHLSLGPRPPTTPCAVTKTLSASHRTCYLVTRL
Protocol: The biological activity of wild-type APETx2 was compared with that of truncations and cyclic analogues using voltage-clamp electrophysiology experiments on Xenopus laevis oocytes expressing homomeric rat ASIC3. […] At 1000 nM, a concentration of APETx2 that normally causes >90% inhibition of ASIC3 [18], all three cyclic analogues had little activity (~10% inhibition, n = 6) (Figure 5). Although a full concentration-effect curve was not obtained, there is an approximate 125-fold decrease in activity for all three cyclic analogues based on the concentration that causes 10% inhibition (~8 nM for wild-type APETx2 vs. 1000 nM for cyclic APETx2).
Oocytes were obtained from Xenopus laevis frogs and treated with collagenase (Sigma type I) for defolliculation. cRNA of rat ASIC3 was synthesised using an mMessage mMachine cRNA transcription kit and healthy stage V–VI oocytes injected with 4 ng rat ASIC3 cRNA (40 nL of 100 ng/μL). Oocytes were kept at 17 °C in ND96 solution (96 mM NaCl, 2 mM KCl, 1 mM CaCl2, 2 mM MgCl2, 5 mM HEPES, 5 mM pyruvic acid, 50 µg/mL gentamicin, 2.5% fetal horse serum, pH 7.4). Membrane currents were recorded 2–6 days post cRNA injection under voltage-clamp (Axoclamp 900 A amplifier, Molecular Devices, Sunnyvale, CA, USA) using two standard glass microelectrodes with resistances of 0.5–1 MΩ when filled with 3 M KCl solution. […]

[2] = Solution stability under lab storage conditions; type: physicochemical; conditions: dissolved in water and kept at 4 °C; unpublished observations
pepsin [3] = molecular target: T3, pepsin (Sus scrofa, UniProt P00791); assay: Simulated gastric fluid (SGF) stability assay; type: in vitro ADME; conditions: 20 μM peptide, RP-HPLC
T3 construct: purchased Sigma Aldrich
T3 sequence (P00791 60-385): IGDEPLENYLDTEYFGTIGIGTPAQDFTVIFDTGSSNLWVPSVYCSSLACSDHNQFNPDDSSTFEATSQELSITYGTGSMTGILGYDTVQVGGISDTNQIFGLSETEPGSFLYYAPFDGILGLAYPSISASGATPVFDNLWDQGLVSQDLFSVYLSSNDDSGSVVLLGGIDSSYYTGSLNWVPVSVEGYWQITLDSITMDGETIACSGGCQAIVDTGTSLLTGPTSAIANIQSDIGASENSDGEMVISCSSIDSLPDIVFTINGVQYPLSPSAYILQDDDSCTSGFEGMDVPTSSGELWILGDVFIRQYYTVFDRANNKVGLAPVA
Protocol: as §1

cyclo(ACSCGNSKGIYWFYRPSCPTDRGYTGSCRYFLGTCCTPADGASGSAGT) (disulfide 2-35, 4-28, 18-36) [cAPETx2_6RL]
half-life at 20 μM (trypsin; trypsin in Tris/EDTA buffer): 104 h | half-life at 20 μM (pepsin [1]): 1.9 h

GTACSCGNSKGIYWFYRPSCPTDRGYTGSCRYFLGTCCTPAD (disulfide 4-37, 6-30, 20-38) [APETx2_wt, APETx2]
IC50 (rat ASIC3; Xenopus oocytes, clamped at −60 mV, pH 6 stimulus, ND96 with 0.1% BSA, RT, read-out: IC50 for inhibition of rASIC3 currents): 61 nM | Trypsin stability assay: half-life (trypsin): 2.8 h | Trypsin stability assay: half-life (trypsin; listed as wild-type APETx2): ~ 2.8 h | remaining at 48 h, 20 μM (trypsin; trypsin in Tris/EDTA buffer, 48 h, 1 μg trypsin, 20 mM Tris, triplicate, read-out: peptide remaining intact after 48 h in the presence of trypsin): ~4% | solution stability under lab storage conditions [2]: stable for months | time within which peptide is almost totally digested in simulated gastric fluid (pepsin [3]; SGF 6.2 mg/mL pepsin, pH 1.9, 37 °C): ≤ 20 min | Simulated gastric fluid stability assay: half-life (pepsin [3]; SGF: 6.2 mg/mL pepsin, 30 mM NaCl, pH 1.9, 37 °C, samples 0-480 min, each time point in triplicate): 5 min | half-life at 20 μM (pepsin [1]): ~0.0833 h

cyclo(ACSCGNSKGIYWFYRPSCPTDRGYTGSCRYFLGTCCTPADAGASGSAGT) (disulfide 2-35, 4-28, 18-36) [cAPETx2_7RL]
half-life at 20 μM (trypsin; trypsin in Tris/EDTA buffer): 134 h | half-life at 20 μM (pepsin [1]): 2.75 h

CC[C@H](C)[C@@H]1NC(=O)CNC(=O)[C@H](CCCCN)NC(=O)[C@H](CO)NC(=O)[C@H](CC(N)=O)NC(=O)CNC(=O)[C@@H]2CSSC[C@@H]3NC(=O)[C@H](CO)NC(=O)CNC(=O)[C@H]([C@@H](C)O)NC(=O)[C@H](Cc4ccc(O)cc4)NC(=O)CNC(=O)[C@H](CCCNC(=N)N)NC(=O)[C@H](CC(=O)O)NC(=O)[C@H]([C@@H](C)O)NC(=O)[C@@H]4CCCN4C(=O)[C@H](CSSC[C@@H](C(=O)N[C@H](C(=O)N4CCC[C@H]4C(=O)N[C@@H](C)C(=O)N[C@@H](CC(=O)O)C(=O)O)[C@@H](C)O)NC(=O)[C@H](CSSC[C@H](NC(=O)[C@H](C)N)C(=O)N[C@@H](CO)C(=O)N2)NC(=O)[C@H]([C@@H](C)O)NC(=O)CNC(=O)[C@H](CC(C)C)NC(=O)[C@H](Cc2ccccc2)NC(=O)[C@H](Cc2ccc(O)cc2)NC(=O)[C@H](CCCNC(=N)N)NC3=O)NC(=O)[C@H](CO)NC(=O)[C@@H]2CCCN2C(=O)[C@H](CCCNC(=N)N)NC(=O)[C@H](Cc2ccc(O)cc2)NC(=O)[C@H](Cc2ccccc2)NC(=O)[C@H](Cc2c[nH]c3ccccc23)NC(=O)[C@H](Cc2ccc(O)cc2)NC1=O [APETx2_3–42] (H-ACSCGNSKGIYWFYRPSCPTDRGYTGSCRYFLGTCCTPAD-OH; disulfide 2-35, 4-28, 18-36)
inhibition at 3 µM (rat ASIC3; 3 μM peptide, rat ASIC3 in Xenopus oocytes, read-out: inhibition of ASIC3 currents at 3 μM): ~13%

cyclo(ACSCGNSKGIYWFYRPSCPTDRGYTGSCRYFLGTCCTPADSAGASGSAGT) (disulfide 2-35, 4-28, 18-36) [cAPETx2_8RL]
half-life at 20 μM (trypsin; trypsin in Tris/EDTA buffer): 131 h | half-life at 20 μM (pepsin [1]): 1.67 h
